Measurements from patent EP0427405A1 (priority 1989, dated 1991).

Legend:
[1] = tested on: Phaffia rhodozyma ENZA-A169; format: cell-based
[2] = tested on: Phaffia rhodozyma ENZA-M10; format: cell-based

SMILES: CSC [DMS, dimethylsulphide]
- kill curve, kinetics of death [1]: follows 1st order kinetics
- kill curve, speed of killing [1]: killed much more quickly than E1
- kill curve, shape [2]: definite "bump"
